In PubChem BioAssay (NCI) one finds TGI and GI50 data, which are given here for 13 compounds.

Test systems include SN12C renal; HL-60(TB) leukemia; RXF 393 renal; BT-549 breast; HCT-116 colon; HOP-62 NSCLC; OVCAR-4 ovarian; MALME-3M melanoma; SF-539 CNS; NCI/ADR-RES ovarian; TK-10 renal; KM12 colon; A498 renal; CCRF-CEM leukemia; OVCAR-8 ovarian; EKVX NSCLC; U251 CNS.
Holding throughout (test): NCI tumour cell line growth inhibition, 48 h

The structures appear in SMILES notation. Values joined by “and” are separate entries in the source; they are usually repeats but may differ in a detail not shown here. Equal entries are not always repeated.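 Interpolation was linear, between the two tested concentrations surrounding the appropriate level; five concentrations were tested over 48 hours in 96-well plates. The concentration for 50% growth inhibition is given as GI50. TGI: concentration producing complete growth inhibition.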

Consider `CC(=O)O[C@H]1CC[C@@]2(C)C(=CC[C@@H]3[C@@H]2CC[C@]2(C)C(=N/O)/C(=C/c4ccc([N+](=O)[O-])cc4)C[C@@H]32)C1`, for which the TGI in the assay on SN12C renal was 87.3 µM; in the assay with HL-60(TB) leukemia, 66.1 µM; in the assay with RXF 393 renal, more than 100 µM; in the assay with BT-549 breast, 14 µM; in the assay with HCT-116 colon, more than 100 µM; in the assay with HOP-62 NSCLC, more than 100 µM. Also, the TGI in the assay with OVCAR-4 ovarian was more than 100 µM; with MALME-3M melanoma, more than 100 µM; in the assay on SF-539 CNS, more than 100 µM; with NCI/ADR-RES ovarian it was more than 100 µM; in the assay with TK-10 renal, 55.3 µM; in the assay on KM12 colon, more than 100 µM. Besides, the TGI is 25.5 µM in the assay with A498 renal and more than 100 µM in the assay on CCRF-CEM leukemia.

As to `CN(C)c1ccc(/C=C(\NC(=O)c2ccccc2)C(=O)Nc2ccccc2C(=O)O)cc1`, the TGI with OVCAR-8 ovarian, with SN12C renal, in the assay on HL-60(TB) leukemia, in the assay with RXF 393 renal, in the assay on EKVX NSCLC and in the assay on BT-549 breast was more than 100 µM each time. Also, the TGI with U251 CNS, in the assay with HCT-116 colon, with HOP-62 NSCLC, in the assay with MALME-3M melanoma, with SF-539 CNS and in the assay on NCI/ADR-RES ovarian was more than 100 µM throughout. For the same compound, the TGI with KM12 colon, in the assay with A498 renal and in the assay with CCRF-CEM leukemia was more than 100 µM each time.

On to `Cc1ccc2c(=O)c(-c3nnc(N)s3)c[nH]c2n1`, for which the TGI in the assay on OVCAR-8 ovarian, in the assay with SN12C renal, in the assay on HL-60(TB) leukemia, in the assay on RXF 393 renal, in the assay on EKVX NSCLC and in the assay with BT-549 breast was more than 100 µM throughout. Moreover, the TGI in the assay with U251 CNS, in the assay on HCT-116 colon, in the assay with HOP-62 NSCLC, in the assay on OVCAR-4 ovarian, in the assay with MALME-3M melanoma and with NCI/ADR-RES ovarian was more than 100 µM each time. The TGI in the assay with TK-10 renal, in the assay on KM12 colon, in the assay on A498 renal and in the assay on CCRF-CEM leukemia was more than 100 µM each time.

For `CCOC(=O)c1cccc([N+](=O)[O-])c1N`, the TGI in the assay on OVCAR-8 ovarian, in the assay with SN12C renal, with HL-60(TB) leukemia, in the assay on EKVX NSCLC, with BT-549 breast and with U251 CNS was more than 100 µM each time. Besides, the TGI in the assay with HCT-116 colon, in the assay with HOP-62 NSCLC, in the assay on OVCAR-4 ovarian, in the assay with MALME-3M melanoma, with SF-539 CNS and in the assay on NCI/ADR-RES ovarian was more than 100 µM throughout. Moreover, the TGI in the assay on TK-10 renal, with KM12 colon, with A498 renal and in the assay with CCRF-CEM leukemia was more than 100 µM each time.

With `CCN1CC2=C(NC(=S)NC2c2cc(OC)c(OC)c(OC)c2)/C(=C/c2cc(OC)c(OC)c(OC)c2)C1` (centres undefined), the TGI in the assay on OVCAR-8 ovarian is 61.6 µM; in the assay on HL-60(TB) leukemia, 56.7 µM; with RXF 393 renal it was more than 100 µM; in the assay on EKVX NSCLC, more than 100 µM; in the assay with BT-549 breast, more than 100 µM; with U251 CNS it was more than 100 µM. In addition, the TGI with HCT-116 colon is more than 100 µM; with HOP-62 NSCLC it was more than 100 µM; in the assay with OVCAR-4 ovarian, more than 100 µM; in the assay with MALME-3M melanoma, 31.5 µM; with NCI/ADR-RES ovarian it was more than 100 µM; in the assay on TK-10 renal, more than 100 µM. In addition, the TGI with KM12 colon is more than 100 µM; in the assay with A498 renal, 87.8 µM; in the assay on CCRF-CEM leukemia it was more than 100 µM.

`O=C(Nc1ccccc1C(=O)O)/C(=C/c1ccccc1)NC(=O)c1ccccc1`: the TGI with OVCAR-8 ovarian, in the assay with SN12C renal, in the assay with HL-60(TB) leukemia, with RXF 393 renal, in the assay with EKVX NSCLC and in the assay on BT-549 breast was more than 100 µM each time. In addition, the TGI in the assay with U251 CNS, with HCT-116 colon, in the assay on HOP-62 NSCLC, in the assay on MALME-3M melanoma, with SF-539 CNS and in the assay with NCI/ADR-RES ovarian was more than 100 µM throughout. The TGI with KM12 colon, with A498 renal and in the assay with CCRF-CEM leukemia was more than 100 µM each time.

On to `CCCCNC(=O)Nc1c(C(N)=O)c2n(c1C(=O)OCC)CCCCC2`, for which the TGI with OVCAR-8 ovarian, in the assay with HL-60(TB) leukemia, with RXF 393 renal, in the assay on EKVX NSCLC, in the assay with BT-549 breast and in the assay on U251 CNS was more than 100 µM in each case. Further, the TGI in the assay with HCT-116 colon, in the assay on HOP-62 NSCLC, in the assay with OVCAR-4 ovarian, in the assay on SF-539 CNS, in the assay with NCI/ADR-RES ovarian and in the assay on TK-10 renal was more than 100 µM each time. Besides, the TGI with KM12 colon, with A498 renal and with CCRF-CEM leukemia was more than 100 µM throughout.

Take `COc1ccc(-n2c(C)nc3ccc(NC4OCC(O)C(O)C4O)cc3c2=O)cc1` (centres undefined): the TGI in the assay with OVCAR-8 ovarian is 94.6 µM and 82.3 µM; in the assay with SN12C renal, more than 100 µM; in the assay on HL-60(TB) leukemia, 62.4 µM and 68.2 µM; in the assay on RXF 393 renal, 81.9 µM and 87.8 µM; in the assay with EKVX NSCLC, more than 100 µM; in the assay with BT-549 breast it was more than 100 µM. Moreover, the TGI with U251 CNS is more than 100 µM; with HCT-116 colon, 40.4 µM and 39.3 µM; in the assay on HOP-62 NSCLC it was more than 100 µM; in the assay on OVCAR-4 ovarian, more than 100 µM; with MALME-3M melanoma, more than 100 µM; in the assay with NCI/ADR-RES ovarian, more than 100 µM. For the same compound, the TGI in the assay on TK-10 renal, in the assay on KM12 colon and in the assay with A498 renal was more than 100 µM in each case. Moreover, the GI50 in the assay on KM12 colon was 36.5 µM and > 100 µM.

Turning to `O=C1NC(=O)C(C(c2ccc(Cl)cc2)C2C(=O)NC(=O)NC2=O)C(=O)N1`, the TGI in the assay with OVCAR-8 ovarian, in the assay with SN12C renal, in the assay with HL-60(TB) leukemia, with RXF 393 renal, with EKVX NSCLC and with BT-549 breast was more than 100 µM each time. For the same compound, the TGI with U251 CNS, in the assay with HCT-116 colon, in the assay on HOP-62 NSCLC, in the assay on OVCAR-4 ovarian, with MALME-3M melanoma and in the assay with NCI/ADR-RES ovarian was more than 100 µM in each case. Further, the TGI in the assay on TK-10 renal, in the assay on KM12 colon, in the assay on A498 renal and in the assay with CCRF-CEM leukemia was more than 100 µM throughout.

For `Cc1ccc2c(c1)[nH]c(=S)n2C=C1C(=O)CC(C)(C)CC1=O`, the TGI with OVCAR-8 ovarian, in the assay with SN12C renal, in the assay with HL-60(TB) leukemia, with RXF 393 renal, in the assay with EKVX NSCLC and in the assay on BT-549 breast was more than 100 µM in each case. Further, the TGI with U251 CNS, in the assay on HCT-116 colon, with HOP-62 NSCLC, in the assay on OVCAR-4 ovarian, with SF-539 CNS and in the assay on NCI/ADR-RES ovarian was more than 100 µM throughout. The TGI in the assay on TK-10 renal, with KM12 colon, with A498 renal and with CCRF-CEM leukemia was more than 100 µM throughout.

As for `O=C(CCc1ccc(O)c(O)c1)NCCc1cc(OCc2ccccc2)cc(OCc2ccccc2)c1`, the TGI with OVCAR-8 ovarian is 43.4 µM; in the assay with SN12C renal it was 28.6 µM; with HL-60(TB) leukemia, 7.27 µM; in the assay on RXF 393 renal, 36.8 µM; with EKVX NSCLC, 29.3 µM; in the assay on BT-549 breast it was 20.2 µM. Besides, the TGI is more than 100 µM with U251 CNS; 31.6 µM with HCT-116 colon; 37 µM in the assay with HOP-62 NSCLC; 30.1 µM in the assay with SF-539 CNS; 64 µM in the assay with NCI/ADR-RES ovarian; 41.5 µM in the assay with TK-10 renal. The figures for the TGI with KM12 colon, with A498 renal and in the assay with CCRF-CEM leukemia were 34.7 µM, 37.7 µM and 11.5 µM, respectively.

On to `COc1ccc(N2C(=O)/C(=C\c3cccc(Oc4ccccc4)c3)S(=O)(=O)C2c2ccccc2)cc1` (centres undefined), for which the TGI in the assay with SN12C renal was more than 100 µM; with HL-60(TB) leukemia, 58.9 µM; with RXF 393 renal, more than 100 µM; with EKVX NSCLC it was 88 µM; in the assay on BT-549 breast, 91.7 µM; in the assay on U251 CNS, more than 100 µM. In addition, the TGI in the assay with HCT-116 colon was more than 100 µM; with HOP-62 NSCLC, more than 100 µM; in the assay with OVCAR-4 ovarian, more than 100 µM; in the assay on MALME-3M melanoma it was more than 100 µM; in the assay on NCI/ADR-RES ovarian it was 46.2 µM; in the assay on TK-10 renal, more than 100 µM. For the same compound, the TGI in the assay with KM12 colon, in the assay with A498 renal and in the assay on CCRF-CEM leukemia was more than 100 µM in each case.

For `CC(=O)OCC12C(OC(C)=O)C[C@@H](C)C3(CC(c4ccoc4)OC3=O)C1CCC(O)C21CO1` (some centres undefined), the TGI with OVCAR-8 ovarian, in the assay with SN12C renal, with HL-60(TB) leukemia, in the assay with RXF 393 renal, in the assay with BT-549 breast and in the assay with U251 CNS was more than 100 µM in each case. The TGI in the assay on HCT-116 colon, in the assay on HOP-62 NSCLC, in the assay on OVCAR-4 ovarian, in the assay on MALME-3M melanoma, in the assay on SF-539 CNS and in the assay with NCI/ADR-RES ovarian was more than 100 µM each time. In addition, the TGI in the assay with TK-10 renal, in the assay on KM12 colon and in the assay on A498 renal was more than 100 µM throughout.
